Each structure is given as a SMILES string. Read-outs that look alike come from different tables or passages of the source.

The test system of series [1] is BM5d proviral DNA. Description: PCR analysis of BM5d proviral DNA in spleen, lymph node and bone marrow. The format is in vivo, C57BL/6 mice. The settings on record: at 10 weeks after infection. The text has this: The following oligonucleotide primers were used for the amplification of a 141-bp gag gene of defective virus genome (BM5d); 5' primer, 5'-AACCTTCCTCCTCTGCCA-3' (sense) corresponding to nucleotides 1456-1473 and 3' primer, 5'-ACCACCTCTCGGGCTTTC-3' (antisense) corresponding to nucleotides 1579-1596 of the BM5d genome (Chat topadhyay SK, Sengupta D.N., FredricksonT.N., Morse H.C. III, Hartley J.W., "Characteristics and contributions of defective, ecotropic and mink cell focus-inducing viruses in a retrovirus induced immunodeficiency syndrome of mice.", J..Virol. 1991; 65: 4232-41.). A second pair or oligonucleotide primers was used for amplification of 203-bp of the mouse glucose-6-phosphate dehydrogenase (G6PD) gene. This amplification served as an internal control (endogenous standard) for evaluation of the relative BM5d proviral DNA. The nucleotide primers for the amplification were as follows: 5' primer, 5'-[…]-3' (sense) and 3' primer, 5'-[…]-3' (antisense) (Kurdi-Haidar B., Mason P.J., Berrebi A., et al., "Origin and spread of the glucose-6-phosphate dehydrogenase variant (G6PD-Mediterranean) in the Middle East.", Am. J. Hum. Genet. 1990; 47:1013-19.).
Probe D30, which was derived from the 137-bp Smal-Xhol p12 gag fragment of the defective virus genome (DU5H), was kindly provided by P. Jolicoeur (Montreal, Canada) (Aziz D.C., Hanna Z., Jolicoeur P., "Severe immunodeficiency disease induced by a defective murine leukemia virus.", Nature 1989; 338: 505-08).
Total cellular DNA was isolated from the spleens, lymph nodes and bone marrow of uninfected, infected and infected/treated mice by the sodium iodide isopropanol method.
PCR amplifications were performed in a 25 µl final volume using the Perkin Elmer GeneAMP kit (1 mM MgCl2, 2.5 U AmpliTag) with 0.3 µg total cellular DNA and 20 pmol of each primer.
PCR reaction were carried out for 37 cycles at 95°C for 30 sec, 58°C for 30 sec and 72°C for 30 sec with a final extension at 72°C for 10 min.
Products were analyzed by electrophoresis on agarose gel, blotted and hybridized with either the ^32P-labeled D30 or G6PD probe.
The intensity of radiolabeled bands was analyzed and quantified in a GS-250 Molecular Imager™ (Bio-Rad, Hercules, CA, USA). For BM5d proviral DNA detection the relative integration was determined by dividing the intensity of the BM5d bands by the intensity of G6PD bands (Fraternale A., Casabianca A., Rossi L., et al., "Inhibition of murine AIDS by combination of AZT and dideoxycytidine 5'-triphosphate.", J. Acquir. Imm. Def Syndr. and Hum. Retrovir. 1996; 12:164-73). The percentages of inhibition were referred to the infected mice.

The nature of series [2]: Stability in drinking water. The format is physicochemical. The following applies: 0.25 mg/ml, room temperature, changed every 3 days. As to the method: AZT (Sigma) was administered ad libitum in the drinking water at a concentration of 0.25 mg/ml. AZT was stable in the drinking water at room temperature and was changed every 3 days.
Series [3] relates to LP-BM5. The format is in vivo, C57BL/6 mice. The settings on record: at 10 weeks after infection. The text has this:
LP-BM5 virus was provided by Robert Yetter (Veternas Administration Hospital, Baltimore, MD) and was maintained in a persistently infected SC- 1 cell line as described (Hosier D.E., Yetter R.A., Morse H.C. III, "Functional T lymphocytes are required for a murine retrovirus induced immunodeficiency disease (MAIDS)", J. Exp. Med. 1987; 165:1737-42). C57BL/6 female mice were purchased from Nossan, Milan, Italy and were used at 5 weeks of age. Animals were infected by means of two successive intraperitoneal injections at 24-hr intervals. In the experiments reported three different virus preparations were used.
Mice were housed at 22±1°C with a 12-hr light-dark cycle, 60±5% humidity, and 12 air changes/hr.
First, the efficacy of 2-fluoro-ara-AMP (F-araAMP, Fludara) in inhibiting murine AIDS (MAIDS), a disease characterized by a lymphoproliferative disorder (lymphadenopathy and splenomegaly), associated with severe immunodeficiency and hypergammaglobulinemia, was evaluated. The disease develops in some strains of mice (C57BL/6) that are infected with a murine leukemia virus mixture termed LP-BM5. In the first preliminary experiments (after about 4 months from infection) LP-BMS infected animals were treated with three different concentrations of F-ara-AMP: 0.065 mg/mouse, 0.325 mg/mouse, 0.650 mg/mouse. The animals of each group were treated intraperitoneally for 3 days a week and for 3 weeks. At the end of the treatment animals were killed and splenomegaly, lymphadenopathy and hypergammaglobulinemia were evaluated.
Infected mice after 7 weeks from infection were treated intraperitoneally with Fludara as follows: • 1. 0.65 mg/mouse once a day for 4 days a week (total dose 7.8 mg/mouse); • 2. 0.65 mg/mouse twice a day for 5 days a week (total dose 19.5 mg/mouse); • 3. […]

[4] abbreviates: treatment a: AZT 250 mg/l in drinking water for 6 weeks.
The mark [5] stands for this setting: treatment b: AZT 250 mg/l in drinking water for 10 weeks.

Consider `Cc1cn([C@H]2C[C@H](N=[N+]=[N-])[C@@H](CO)O2)c(=O)[nH]c1=O` [AZT, 3'-Azido-3'-desoxythymidin], for which, in series [1] (setting [4]), the “bone marrow, BM5d proviral DNA copy number (E)” value was 28,500±3,535 Proviral DNA molecules per 0.3 µg of total cellular DNA; the “bone marrow, inhibition of BM5d (% vs. Infected) (F)” value was 4.135±5.847%; the “lymph node, BM5d proviral DNA copy number (C)” value is recorded as 30,966±7,169 Proviral DNA molecules per 0.3 µg of total cellular DNA; the “lymph node, inhibition of BM5d (% vs. Infected) (D)” value is recorded as 85.89±3.26 %. In series [1] (setting [4]), the “spleen, BM5d proviral DNA copy number (A)” value was 135,000±20,000 Proviral DNA molecules per 0.3 µg of total cellular DNA and the “spleen, inhibition of BM5d (% vs. Infected) (B)” value is reported as 15.14±9.60%. Besides, in series [1] (setting [5]), the “bone marrow, BM5d proviral DNA copy number (E)” value was 13,761±8,766 Proviral DNA molecules per 0.3 µg of total cellular DNA; the “bone marrow, inhibition of BM5d (% vs. Infected) (F)” value is listed as 51.51±30.83 %; the “spleen, BM5d proviral DNA copy number (A)” value is given as 39,669±19,026 Proviral DNA molecules per 0.3 µg of total cellular DNA; the “spleen, inhibition of BM5d (% vs. Infected) (B)” value was determined as 73.30±12.53 %. Moreover, in series [2], the “stability in the drinking water” value was “stable”. In series [3] (setting [4]), the “Lymph node w.” value was 1.060 ± 0.240 g and the “Spleen w.” value came to 0.520 ± 0.070 g. In series [3] (setting [5]), the “Lymph node w.” value amounted to 0.550 ± 0.330 g and the “Spleen w.” value came to 0.580 ± 0.150 g.

Source of the values: patent EP0987025A1, “Pharmaceitical composition or composition package containing a pyrimidine nucleoside analogue and a purine nucleoside analogue” (priority 1998, dated 2000).
